In patent US12077503B2, “Substituted cyclic amides and their use as herbicides” (FMC CORPORATION, priority 2015, dated 2024):

Columns and labels:
Experiment in all cases: Test C postemergence
Format in all cases: in vivo
Conditions in all cases: scale 0 to 100, 0 no effect, 100 complete control
Kochia (Kochia scoparia) = system: Kochia (Kochia scoparia)
Method in brief: (§1)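 Seeds in loam-sand soil treated preemergence, or plants in peat-based medium sprayed postemergence at 2–18 cm (1- to 4-leaf stage), with compound in a non-phytotoxic solvent mixture containing surfactant. Greenhouse-held 13–15 d, then visually rated against controls on a 0–100 scale (0 = no effect, 100 = complete control); dash = not tested.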

[1] = system: blackgrass (Alopecurus myosuroides)
Method in brief: as §1

[2] = system: chickweed (common chickweed, Stellaria media)
Method in brief: as §1

corn (Zea mays) = system: corn (Zea mays)
Method in brief: as §1

[3] = system: crabgrass, large (large crabgrass, Digitaria sanguinalis)
Method in brief: as §1

[4] = system: foxtail, giant (giant foxtail, Setaria faberii)
Method in brief: as §1

[5] = system: ryegrass, Italian (Italian ryegrass, Lolium multiflorum)
Method in brief: as §1

soybean (Glycine max) = system: soybean (Glycine max)
Method in brief: as §1

[6] = system: waterhemp (common waterhemp, Amaranthus rudis)
Method in brief: as §1

[7] = system: wheat (winter wheat, Triticum aestivum)
Method in brief: as §1

Compound | Plant response rating, Kochia (Kochia (Kochia scoparia); 31 g ai/ha) | Plant response rating, Kochia (Kochia (Kochia scoparia); 62 g ai/ha) | Plant response rating, Kochia (Kochia (Kochia scoparia); 125 g ai/ha) | Plant response rating, Kochia (Kochia (Kochia scoparia); 250 g ai/ha) | Plant response rating, Blackgrass ([1]; 31 g ai/ha) | Plant response rating, Blackgrass ([1]; 62 g ai/ha) | Plant response rating, Blackgrass ([1]; 125 g ai/ha) | Plant response rating, Blackgrass ([1]; 250 g ai/ha) | Plant response rating, Chickweed ([2]; 31 g ai/ha) | Plant response rating, Chickweed ([2]; 62 g ai/ha) | Plant response rating, Chickweed ([2]; 125 g ai/ha) | Plant response rating, Chickweed ([2]; 250 g ai/ha) | Plant response rating, Corn (corn (Zea mays); 31 g ai/ha) | Plant response rating, Corn (corn (Zea mays); 62 g ai/ha) | Plant response rating, Corn (corn (Zea mays); 125 g ai/ha) | Plant response rating, Corn (corn (Zea mays); 250 g ai/ha) | Plant response rating, Crabgrass, Large ([3]; 31 g ai/ha) | Plant response rating, Crabgrass, Large ([3]; 62 g ai/ha) | Plant response rating, Crabgrass, Large ([3]; 125 g ai/ha) | Plant response rating, Crabgrass, Large ([3]; 250 g ai/ha) | other results
O=C1NCC(c2ccc3c(c2)OC(F)(F)O3)C1C(=O)Nc1cccc(F)c1F (centres unmarked) [Compound 635] | 40 | 20 | 50 | 60 | 0 | 0 | 5 | 40 | 80 | 85 | 85 | 90 | 0 | 0 | 5 | 40 | 20 | 60 | 50 | 70 | Plant response rating, Foxtail, Giant ([4]; 31 g ai/ha): 15; Plant response rating, Foxtail, Giant ([4]; 62 g ai/ha): 30; Plant response rating, Foxtail, Giant ([4]; 125 g ai/ha): 50; Plant response rating, Foxtail, Giant ([4]; 250 g ai/ha): 60; Plant response rating, Ryegrass, Italian ([5]; 31 g ai/ha): 0; Plant response rating, Ryegrass, Italian ([5]; 62 g ai/ha): 0; Plant response rating, Ryegrass, Italian ([5]; 125 g ai/ha): 15; Plant response rating, Ryegrass, Italian ([5]; 250 g ai/ha): 20; Plant response rating, Soybean (soybean (Glycine max); 31 g ai/ha): 0; Plant response rating, Soybean (soybean (Glycine max); 62 g ai/ha): 0; Plant response rating, Soybean (soybean (Glycine max); 125 g ai/ha): 5; Plant response rating, Soybean (soybean (Glycine max); 250 g ai/ha): 10; Plant response rating, Waterhemp ([6]; 31 g ai/ha): 35; Plant response rating, Waterhemp ([6]; 62 g ai/ha): 60; Plant response rating, Waterhemp ([6]; 125 g ai/ha): 55; Plant response rating, Waterhemp ([6]; 250 g ai/ha): 70; Plant response rating, Wheat ([7]; 31 g ai/ha): 0; Plant response rating, Wheat ([7]; 62 g ai/ha): 0; Plant response rating, Wheat ([7]; 125 g ai/ha): 0; Plant response rating, Wheat ([7]; 250 g ai/ha): 5
CN1CC(c2ccc(F)c(F)c2)C(C(=O)Nc2ccccc2C(F)(F)F)C1=O (centres unmarked) [Compound 641] | 0 | 0 | 0 | 40 | 0 | 0 | 0 | 0 | 0 | 0 | 50 | 55 | 0 | 0 | 0 | 10 | 10 | 50 | 70 | 70 | Plant response rating, Foxtail, Giant ([4]; 31 g ai/ha): 0; Plant response rating, Foxtail, Giant ([4]; 62 g ai/ha): 10; Plant response rating, Foxtail, Giant ([4]; 125 g ai/ha): 65; Plant response rating, Foxtail, Giant ([4]; 250 g ai/ha): 80; Plant response rating, Ryegrass, Italian ([5]; 31 g ai/ha): 0; Plant response rating, Ryegrass, Italian ([5]; 62 g ai/ha): 0; Plant response rating, Ryegrass, Italian ([5]; 125 g ai/ha): 10; Plant response rating, Ryegrass, Italian ([5]; 250 g ai/ha): 10; Plant response rating, Soybean (soybean (Glycine max); 31 g ai/ha): 0; Plant response rating, Soybean (soybean (Glycine max); 62 g ai/ha): 0; Plant response rating, Soybean (soybean (Glycine max); 125 g ai/ha): 5; Plant response rating, Soybean (soybean (Glycine max); 250 g ai/ha): 15; Plant response rating, Waterhemp ([6]; 31 g ai/ha): 10; Plant response rating, Waterhemp ([6]; 62 g ai/ha): 10; Plant response rating, Waterhemp ([6]; 125 g ai/ha): 25; Plant response rating, Waterhemp ([6]; 250 g ai/ha): 30; Plant response rating, Wheat ([7]; 31 g ai/ha): 0; Plant response rating, Wheat ([7]; 62 g ai/ha): 0; Plant response rating, Wheat ([7]; 125 g ai/ha): 0; Plant response rating, Wheat ([7]; 250 g ai/ha): 0
